Reference: patent publication US7045531B1, “Composition comprising a metal chelator and a method of treating amyloidosis by administering the metal chelator” (The General Hospital Corporation, priority 1997, dated 2006)
Entries after “also recorded” stand apart in the source; their conditions may differ.

Columns and labels:
[1] = target: Aβ1-42 (Homo sapiens, UniProt P05067); assay: Effect of OH. scavengers on OH. generation by Aβ1-42 (TBARS); format: biochemical; settings: scavenger 5 mM; Fe^3+ or Cu^2+
Experimental: (§1) FIGS. 16A and 16B are graphical representations showing production of the hydroxyl radical (OH.) from the incubation of Aβ in the presence of substoichiometric amounts of Fe^3+ or Cu^2+. […] All data points are means±SD, n=3.
(§2) The Thiobarbituric Acid-Reactive Substance (TBARS) assay for incubation mixtures with Fe^3+ or Cu^2+ was performed in a 96-well microtiter format modified from established protocols (Gutteridge et al. Biochim. Biophys. Acta 759: 38–41 (1983)). Aβ peptide species (10 μM) or Vitamin C (100 μM), were incubated with Fe^3+ or Cu^2+ (1 μM) and deoxyribose (7.5 mM, Sigma) in PBS, pH 7.4. Following incubation (37° C., 1 hour), glacial (17 M) acetic acid and 2-thiobarburic acid (1%, w/v in 0.05 M NaOH, Sigma) were added and heated (100° C., 10 min). The final mixtures were placed on ice for 1–3 minutes before absorbances at 532 nm were measured. The net absorbance change for each sample were obtained by deducting the absorbance from a control sample consisting of identical chemical components except for the Vitamin C or Aβ peptides.

[2] = Effect of OH. scavengers on OH. generation by Vitamin C (TBARS); format: biochemical; settings: scavenger 5 mM
Experimental: as §1, §2

[3] = system: Aβ deposits in AD brain tissue; assay: Chelator-promoted solubilization (extraction) of Aβ from AD brain homogenates, Western blot densitometry; format: biochemical, human; settings: for Effect of Chelators (% change from control) upon extraction of Aβ: mean of 6 AD brain samples; for chelator concentration of peak Aβ solubilization (lower peak) / chelator concentration of peak Aβ solubilization (upper peak): titration curves
Experimental: 0.5 g of prefrontal cortex was dissected and homogenized in PBS±chelator as indicated. The homogenate was then centrifuged (100,000 g) and the supernatant removed, and a sample taken for western blot assay using anti-Aβ specific antibodies after Tricine PAGE. Densitometry was performed against synthetic peptide standards.
(§3) Suitable quantities of gray matter from each subject were minced to serve as pools of homogenous tissue. […] To obtain the soluble fraction, the homogenates were centrifuged at 100,000×g for 30 min (Beckman J180, Beckman instruments, Fullerton, Calif.) and the supernatant collected in 1 ml aliquots and stored on ice or immediately frozen at −70° C. In each experiment, all protein was precipitated from 1 ml of supernatant from each treatment group using 1:5 ice cold 10% trichloracetic acid and pelleted in a bench top microfuge (Heraeus, Osteroder, Germany) at 10,000×g. The remaining pellet was frozen at −70° C.
Precipitated protein was subjected to SDS polyacrylamide gel electrophoresis (SDS-PAGE) on Novex pre-cast 10–20% Tris-Tricine gels followed by Western transfer onto 0.2 μm nitrocellulose membrane (Biorad, Hercules, Calif.). […] Each gel included two or more lanes containing known quantities of synthetic Aβ which served as internal reference standards. Blot images were captured by a Relisys scanner with transparency adapter (Teco Information Systems, Taiwan, ROC) and densitometry conducted using the NIH Image 1.6 program (National Institutes for Health, USA., Modified for PC by Scion Corporation, Frederick, Md.), calibrated using a step diffusion chart. For quantitation of Aβ in brain extracts, the internal reference standards of synthetic Aβ were utilized to produce standard curves from which values were interpolated.

[4] = system: Aβ deposits in age-matched control / healthy brain tissue; assay: Chelator-promoted solubilization of Aβ from non-AD control brain tissue, Western blot; format: biochemical, human; settings: chelator 2 mM
From the text: Using the same technique, zinc-mediated assembly of Aβ in normal brains was shown. FIGS. 20A and 20B show sedimentable Aβ deposits in healthy brain tissue. The effects of chelators in enhancing Aβ extraction from brain homogenates is also observed in normal tissue. FIG. 20A illustrates a western blot with anti-Aβ antibody of material extracted from an individual with no history of neurological disorder. T=TPEN, E=EGTA, B=bathocuproine.
as §3
Precipitated protein was subjected to SDS polyacrylamide gel electrophoresis (SDS-PAGE) on Novex pre-cast 10–20% Tris-Tricine gels followed by Western transfer onto 0.2 μm nitrocellulose membrane (Biorad, Hercules, Calif.). Aβ was detected using the WO2, G210 or G211 monoclonal antibodies (Ida, N. et al., J. Biol. Chem. 271:22908 (1996)) in combination with HRP-conjugated rabbit anti-mouse IgG (Dako, Denmark), and visualized using chemiluminescence (ECL, Amersham Life Science, Little Chalfont, Buckinghamshire, UK). Each gel included two or more lanes containing known quantities of synthetic Aβ which served as internal reference standards. […] For quantitation of Aβ in brain extracts, the internal reference standards of synthetic Aβ were utilized to produce standard curves from which values were interpolated.

[5] = Metal reduction assay, Cu^2+ (BC indicator); format: biochemical; settings: Cu^2+ 10 μM; PBS pH 7.4; 1 hr, 37° C.
Experimental: (§4) Polypeptides (10 μM) or Vitamin C (100 μM), metal ions (10 μM, Fe(NO3)3 or Cu(NO3)2), and reduced metal ion indicators, bathophenanthrolinedisulfonic acid (BP, for Fe^2+, Sigma, 200 μM) or bathocuproinedisulfonic acid (BC, for Cu^+, Sigma, […]), were coincubated in phosphate buffered saline (PBS), pH 7.4, for 1 hr at 37° C. The metal ion solutions were prepared by direct dilution in the buffer from their aqueous stocks purchased from National Institute of Standards and Technology (NIST). Absorbances were then measured at 536 nm (Fe^2+-BP complex) and 483 nm (Cu^+-BC complex), respectively, using a 96-well plate reader (SPECTRAmax 250, Molecular Devices, Calif.). In control samples, both metal ion and indicator were present to determine the background buffer signal. As a further control, both metal ion and peptide were present in the absence of indicator to estimate the contribution of light scattering due to turbidity to the absorbance reading at these wavelengths. The net absorbances (ΔA) at 536 nm or 483 nm were obtained by deducting the absorbances from these controls from the absorbances generated by the peptide and metal in the presence of the respective indicator.

[6] = Metal reduction assay, Fe^3+ (BP indicator); format: biochemical; settings: Fe^3+ 10 μM; PBS pH 7.4; 1 hr, 37° C.
Experimental: as §4, with “The metal reduction assay was performed using a 96-well microtiter plate (Costar) based upon a modification of established protocols (Landers, J. W., et al., Amer. Clin. Path. 29:590 (1958); Landers. J. W. et al., Clinica Chimica Acta 3:329 (1958)). Polypeptides” for “Polypeptides”
The concentrations of reduced metal ions (Fe^2+ or Cu^+) were quantified based on the formula: Fe^2+ or Cu^+ (˜M)=A*10^6/(L*M), where L is the measured equivalent vertical pathlength for a well of 300 μL volume as described in the instrument's specifications manual (0.856 cm for Fe^2+; 1.049 cm for Cu^+); M is the known molecular absorbance (M^−1 cm^−1) which is 7124 (for Fe^2+-BP complex) or 2762 (for Cu^+-BC complex).

[7] = Cu^+ generation / metal reduction (Example 2); format: biochemical; settings: 10 μM in PBS; Cu^2+ 10 μM; 30 minutes, 37° C.
Experimental: This method is modified from a protocol assaying serum copper and iron (Landers, J. W., et al., Amer. J. Clin. Path. 29:590 (1958)). It is based on the fact that there are optimal visible absorption wavelengths of 483 nm and 535 nm for Cu^+ complexed with bathocuproinedisulfonic (BC) anion and Fe^2+ coordinated by bathophenanthrolinedisulfonic (BP) anion, respectively.
Aβ (10 μM in PBS, pH 7.4 or 6.8, as shown) was incubated for 30 minutes (37° C.) in the presence of Cu^2+ 10 μM±Zn^2+ 10 μM). Cu^+ levels (n=3, ±SD) were assayed against a standard curve.

[8] = chelator 2 mM, mean of AD subjects 1-6

Aβ1-42, sequence (P05067 672-713 limits assumed): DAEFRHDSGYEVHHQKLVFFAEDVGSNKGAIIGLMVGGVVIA

With `C[S+](C)[O-]` [DMSO, dimethyl sulfoxide] the “effect on generation of OH. by Aβ1-42” value [1] was “neither were able to quench”, the “effect on generation of OH. by Vitamin C” value ([2]; in the presence of Cu^2+) was “suppressed” and the “effect on generation of OH. by Vitamin C” value ([2]; in the presence of Fe^3+) was “suppressed”.
In the case of `O=C(O)CN(CCOCCOCCN(CC(=O)O)CC(=O)O)CC(=O)O` [EGTA], the “Effect of Chelators (% change from control) upon extraction of Aβ” value ([3]; chelator 0.1 mM) was 207%, the “effect on Aβ signal” value ([3]; chelator 2 mM) was “virtually abolished the signal for Aβ; also recorded: always produced a diminution in Aβ signal” and the “Effect of Chelators (% change from control) upon extraction of Aβ” value ([3]; chelator 2.0 mM) was 46%. The “chelator concentration of peak Aβ solubilization (lower peak)” value [3] was ~0.004 mM and the “chelator concentration of peak Aβ solubilization (upper peak)” value [3] was ~0.1 mM.
With `OC[C@@H](O)[C@@H](O)[C@H](O)[C@H](O)CO` [Mannitol] the “effect on generation of OH. by Aβ1-42” value [1] was “neither were able to quench” and the “effect on generation of OH. by Vitamin C” value ([2]; in the presence of Fe^3+) was “suppressed”.
In the case of `c1ccc(CN(CCN(Cc2ccccn2)Cc2ccccn2)Cc2ccccn2)nc1` [TPEN, N,N,N′,N′-tetrakis [2-pyridyl-methyl]ethylenediamine], the “mean increase in solubilized Aβ over PBS alone” value ([3]; 6 AD brains) was “around 2 fold”, the “Effect of Chelators (% change from control) upon extraction of Aβ” value ([3]; chelator 0.1 mM) was 182% and the “Effect of Chelators (% change from control) upon extraction of Aβ” value ([3]; chelator 2.0 mM) was 241%. The “Extractable Aβ (% of total), mean X” value [3, 8] was “(4.6) %”, the “Extractable Aβ, mean X” value [3, 8] was 2.73 µg/g and the “X C/PBS” value ([3]; chelator 2 mM, mean with chelator over mean with PBS, AD) was 2.60. For the same molecule, the “chelator concentration of peak Aβ solubilization (lower peak)” value [3] was ~0.004 mM, the “chelator concentration of peak Aβ solubilization (upper peak)” value [3] was ~0.1 mM and the “Extractable Aβ (% of total), mean X” value ([4]; mean of AC subjects 1-5) was “(16.7) %”. The “Extractable Aβ, mean X” value ([4]; mean of AC subjects 1-5) was 0.40 µg/g and the “X C/PBS” value ([4]; mean with chelator over mean with PBS, AC) was 1.6.
For `O=C1O[C@H]([C@@H](O)CO)C(O)=C1O` [Vitamin C, ascorbic acid], the “available Cu^2+ reduced” value [5] was “reduced Cu^2+ efficiently” and the “available Fe^3+ reduced” value [6] was 15%.
In the case of Aβ1-28: Aβ fragment 1-28, purchased, the “available Cu^2+ reduced” value [5] was “reduced no Cu^2+” and the “available Fe^3+ reduced” value [6] was “did not significantly facilitate the reduction of Fe^3+”.
In the case of Aβ1-42: synthetic human Aβ1-42 peptide, the “available Fe^3+ reduced” value [6] was 50%.
In the case of “insulin: histidine-containing peptide that can bind copper and zinc”, the “available Cu^2+ reduced” value [5] was 10%, the “available Fe^3+ reduced” value [6] was “did not significantly facilitate the reduction of Fe^3+” and the “Cu^2+ reduction / redox reactivity” value [7] was “no Cu^2+ reduction”.
